Assay results reported in patent publication US9403785B2, “Process for preparing amorphous cabazitaxel” (SHILPA MEDICARE LIMITED, priority 2012, dated 2016).

Columns and labels:
[1] = compared with acetone solvate form (Form A); cited from earlier work
[2] = cited from earlier work
[3] = Storage stability of solid form (morphology and physicochemical characteristics); details: solid material obtained after solvent recovery
Source text: The merit of the process according to the present invention resides in that—product obtained after recovery is obtained in non-solvated amorphous form of Cabazitaxel. Said material was found devoid of any crystal lattice and adequately stable to handle and store for longer time (at least up to more than 6 months) without any significant or measurable change in its morphology and physicochemical characteristics.

Q: Which “stability of solid form” value [1] does the source give for CO[C@H]1C(=O)[C@]2(C)[C@@H](OC)C[C@H]3OC[C@@]3(OC(C)=O)[C@H]2[C@H](OC(=O)c2ccccc2)[C@]2(O)C[C@H](OC(=O)[C@H](O)[C@@H](NC(=O)OC(C)(C)C)c3ccccc3)C(C)=C1C2(C)C [Form D anhydrous, 4-acetoxy-2α-benzoyloxy-5β,20-epoxy-1-hydroxy-7β,10β-dimethoxy-9-oxotax-11-en-13α-yl (2R,3S)-3-tert-butoxycarbonylamino-2-hydroxy-3-phenyl-propionate] here?
A: highly stable, even more stable than acetone solvate form (Form A)

Q: For CO[C@H]1C(=O)[C@@]2(C)C([C@H](OC(=O)c3ccccc3)[C@]3(O)C[C@H](OC(=O)[C@H](O)[C@H](NC(=O)OC(C)(C)C)c4ccccc4)C(C)=C1C3(C)C)[C@]1(OC(C)=O)CO[C@@H]1C[C@@H]2OC (stereo partly drawn) [Cabazitaxel, (2α,5β,7β,10β,13α)-4-acetoxy-13-({(2R,3S)-3[(tert-butoxycarbonyl)amino]-2-hydroxy-3-phenylpropanoyl}oxy)-1-hydroxy-7,10-dimethoxy-9-oxo-5,20-epoxytax-11-en-2-yl benzoate], which solubility in water [2] is on record?
A: practically insoluble in water

Q: For CO[C@H]1C(=O)[C@@]2(C)C([C@H](OC(=O)c3ccccc3)[C@]3(O)C[C@H](OC(=O)[C@H](O)[C@H](NC(=O)OC(C)(C)C)c4ccccc4)C(C)=C1C3(C)C)[C@]1(OC(C)=O)CO[C@@H]1C[C@@H]2OC (stereo in doubt) [(2α,5β,7β,10β,13α)-4-acetoxy-13-({(2R,3S)-3[(tert-butoxy-carbonyl)amino]-2-hydroxy-3-phenylpropanoyl}oxy)-1-hydroxy-7,10-dimethoxy-9-oxo-5,20-epoxytax-11-en-2-yl benzoate], which “time handled and stored without any significant or measurable change in morphology and physicochemical characteristics” value [3] is on record?
A: more than 6 months
